Results: paper PMC9606171, “Synthetic PPAR Agonist DTMB Alleviates Alzheimer’s Disease Pathology by Inhibition of Chronic Microglial Inflammation in 5xFAD Mice” (Neurotherapeutics, 2022)

What was measured:
[1] = tested on: RAW 264.7 macrophage cells; assay: Griess assay, LPS-induced NO production; type: cell-based; settings: LPS (1 µg/mL), 24 h
Experimental: Griess assay (Promega) was performed under manufacturer’s instruction to measure the concentration of nitrite after inducing the inflammatory response in RAW 264.7 macrophage cells by LPS treatment. The well-known PPAR selective agonists, such as WY14643 (PPARα), GW501516 (PPAR-β/δ), and rosiglitazone (PPARγ), were used as positive controls.

PPAR-β/δ = tested on: PPAR-β/δ; set-up: method as in PMID 27802237; settings: dual agonist of PPAR-β/δ and PPARγ; cited from earlier work

| SMILES | inhibition of NO production compared between DTMB and known PPAR agonists [1] | selectivity to PPAR-β/δ (PPAR-β/δ) [fold] |
| --- | --- | --- |
| Cc1cc(SCc2sc(-c3ccc(C(F)(F)F)cc3)nc2C)ccc1OCC(=O)O [GW501516, reference compound] | better inhibitor than DTMB | – |
| CCc1oc(-c2ccc(OC)cc2)nc1CCOc1ccc2c(c1)CC[C@H]2CC(=O)[O-].[Na+] [T3D-959] | – | 15 |
